In ChEMBL document CHEMBL1201862, “PubChem BioAssay data set” (2004):
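Tested at 5 concentrations; 48 h exposure; 96-well plates; endpoints linearly interpolated, else capped at highest concentration. At the GI50, growth is halved.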 Active and inactive are the calls of the source. Rule as the data show it: active = GI50 up to about 1.1 µM and inactive = higher.

Legend:
Assay in all cases: inhibition of tumour cell growth, NCI panel, 48 h
EKVX = system: EKVX
CAKI-1 = system: CAKI-1
786-0 = system: 786-0
HCC 2998 = system: HCC 2998
COLO 205 = system: COLO 205
A498 = system: A498
RXF 393 = system: RXF 393
U-251 = system: U-251
NCI/ADR-RES = system: NCI/ADR-RES
TK-10 = system: TK-10
HOP-62 = system: HOP-62
ACHN = system: ACHN
MDA-MB-435 = system: MDA-MB-435
UACC-62 = system: UACC-62
OVCAR-4 = system: OVCAR-4
UO-31 = system: UO-31
IGROV-1 = system: IGROV-1
M14 = system: M14
SK-MEL-28 = system: SK-MEL-28

Structure (SMILES)	GI50 (EKVX)	GI50 (CAKI-1)	GI50 (786-0)	GI50 (HCC 2998)	GI50 (COLO 205)	GI50 (A498)	GI50 (RXF 393)	GI50 (U-251)	GI50 (NCI/ADR-RES)	GI50 (TK-10)	GI50 (HOP-62)	GI50 (ACHN)	GI50 (MDA-MB-435)	GI50 (UACC-62)	GI50 (OVCAR-4)	GI50 (UO-31)	GI50 (IGROV-1)	GI50 (M14)	GI50 (SK-MEL-28)
COc1ccc(/C=C2\CCC(CNc3ccc(Br)cc3)C2=O)cc1 (centres undefined)	> 100 µM (inactive)	> 100 µM (inactive)	> 100 µM (inactive)	83.9 µM (inactive)	81.8 µM (inactive)	> 100 µM (inactive)	> 100 µM (inactive)	> 100 µM (inactive)	> 100 µM (inactive)	57.5 µM (inactive)	> 100 µM (inactive)	15.3 µM (inactive)	> 100 µM (inactive)	34.8 µM (inactive)	> 100 µM (inactive)	73.8 µM (inactive)	> 100 µM (inactive)	65.8 µM (inactive)	> 100 µM (inactive)
COc1cc(Nc2nc3cc(C(F)(F)F)ccc3nc2C(=O)O)cc(OC)c1OC	33.3 µM (inactive)	30.7 µM (inactive)	52.8 µM (inactive)	61 µM (inactive)	45.5 µM (inactive)	77.8 µM (inactive)	28.9 µM (inactive)	36.6 µM (inactive)	41.7 µM (inactive)	51.3 µM (inactive)	44.3 µM (inactive)	65.6 µM (inactive)	45.6 µM (inactive)	39.8 µM (inactive)	> 100 µM (inactive)	42.7 µM (inactive)	66.1 µM (inactive)	40.6 µM (inactive)	69.2 µM (inactive)
Cc1cccc2c(N)c3cccc(C(=O)NCCN(C)C)c3nc12	0.0583 µM (active)	< 0.015 µM (active)	< 0.0199 µM (active)	0.027 µM (active)	0.0315 µM (active)	0.157 µM (active)	0.184 µM (active)	< 0.0302 µM (active)	0.373 µM (active)	0.214 µM (active)	< 0.0247 µM (active)	< 0.0163 µM (active)	0.12 µM (active)	0.0649 µM (active)	0.09 µM (active)	0.112 µM (active)	< 0.0291 µM (active)	0.143 µM (active)	0.193 µM (active)
Nc1ncnc2c1ncn2C1OC(CO)C2OC21 (centres undefined)	> 100 µM (inactive)	> 100 µM (inactive)	> 10 µM (inactive)	> 100 µM (inactive)	> 100 µM (inactive)	> 100 µM (inactive)	> 100 µM (inactive)	> 100 µM (inactive)	> 10 µM (inactive)	> 100 µM (inactive)	> 100 µM (inactive)	> 100 µM (inactive)	> 10 µM (inactive)	> 100 µM (inactive)	> 100 µM (inactive)	> 100 µM (inactive)	> 100 µM (inactive)	> 10 µM (inactive)	> 100 µM (inactive)
O=C1CCC2(CC1CC[S+]([O-])c1ccccc1)OCCO2 (centres undefined)	> 100 µM (inactive)	> 100 µM (inactive)	> 100 µM (inactive)	> 100 µM (inactive)	> 100 µM (inactive)	> 100 µM (inactive)	> 100 µM (inactive)	> 100 µM (inactive)	> 100 µM (inactive)	> 100 µM (inactive)	> 100 µM (inactive)	> 100 µM (inactive)	> 100 µM (inactive)	> 100 µM (inactive)	> 100 µM (inactive)	> 100 µM (inactive)	> 100 µM (inactive)	> 100 µM (inactive)	> 100 µM (inactive)
O=C(Nc1cccc2nsnc12)c1cc2c(cc1Cl)Sc1nccn1S2(=O)=O	5.22 µM (inactive)	9.55 µM (inactive)	15.9 µM (inactive)	3.38 µM (inactive)	18 µM (inactive)	13.6 µM (inactive)	4.6 µM (inactive)	5.66 µM (inactive)	17.7 µM (inactive)	6.01 µM (inactive)	1.78 µM (inactive)	12.7 µM (inactive)	9.62 µM (inactive)	5.33 µM (inactive)	3.31 µM (inactive)	2.07 µM (inactive)	11.5 µM (inactive)	18.9 µM (inactive)	3.01 µM (inactive)
C=CCN(c1cc(OCc2ccccc2)c2[nH]cc(C)c2c1)S(C)(=O)=O	24.2 µM (inactive)	61.7 µM (inactive)	33.8 µM (inactive)	> 100 µM (inactive)	> 100 µM (inactive)	29.2 µM (inactive)	23.1 µM (inactive)	46.7 µM (inactive)	53.1 µM (inactive)	92.3 µM (inactive)	39 µM (inactive)	37.6 µM (inactive)	72.1 µM (inactive)	22.8 µM (inactive)	34.4 µM (inactive)	41.8 µM (inactive)	88.7 µM (inactive)	> 100 µM (inactive)	48.8 µM (inactive)
Cc1cc(-c2[nH]c(C(=O)O)cc2I)on1	51.6 µM (inactive)	93.1 µM (inactive)	36.6 µM (inactive)	> 100 µM (inactive)	> 100 µM (inactive)	> 100 µM (inactive)	24 µM (inactive)	40.9 µM (inactive)	> 100 µM (inactive)	> 100 µM (inactive)	26.9 µM (inactive)	91.4 µM (inactive)	> 100 µM (inactive)	53.8 µM (inactive)	> 100 µM (inactive)	40.5 µM (inactive)	12.5 µM (inactive)	80 µM (inactive)	> 100 µM (inactive)
COC(=O)c1c(C)cccc1C1CN=NC12Cc1cc(C)cc(C)c1C2=O (centres undefined)	39.2 µM (inactive)	24.9 µM (inactive)	42.7 µM (inactive)	22.9 µM (inactive)	17.2 µM (inactive)	24.9 µM (inactive)	34 µM (inactive)	44.7 µM (inactive)	25.2 µM (inactive)	32.4 µM (inactive)	44 µM (inactive)	41.5 µM (inactive)	37.2 µM (inactive)	70.6 µM (inactive)	29.2 µM (inactive)	28.4 µM (inactive)	57.7 µM (inactive)	46.1 µM (inactive)	76.4 µM (inactive)
COc1ccc(C#Cn2nnc3ccccc32)cc1	32.8 µM (inactive)	32.1 µM (inactive)	> 100 µM (inactive)	26.2 µM (inactive)	> 100 µM (inactive)	> 100 µM (inactive)	97.7 µM (inactive)	> 100 µM (inactive)	> 100 µM (inactive)	> 100 µM (inactive)	> 100 µM (inactive)	> 100 µM (inactive)	> 100 µM (inactive)	> 100 µM (inactive)	> 100 µM (inactive)	2.15 µM (inactive)	> 100 µM (inactive)	> 100 µM (inactive)	> 100 µM (inactive)
c1ccc2c(c1)ccn1ccc3c4ccccc4nc-3c21	0.214 µM (active)	0.417 µM (active)	0.178 µM (active)	0.191 µM (active)	0.222 µM (active)	0.0527 µM (active)	0.439 µM (active)	0.299 µM (active)	0.33 µM (active)	1.16 µM (inactive)	0.411 µM (active)	0.228 µM (active)	0.362 µM (active)	1.16 µM (inactive)	0.332 µM (active)	0.34 µM (active)	0.394 µM (active)	0.38 µM (active)	0.368 µM (active)
